The results in this text go back to US20060069110A1, “Substituted heterocyclic compounds and methods of use” (priority 2004, published 2006).

pIC50: −log10 of the molar value.

The term pIC50 denotes the IC50 on a negative log10 scale, so that one unit is a factor of ten.

In the assay the test system is THP1 cells (LPS induced TNF release). The assay can be described thus: Lipopolysaccharide-Activated THP1 Cell TNF Production Assay. The format is cell-based. The note with it: Homo sapiens, THP-1; THP1 cells, bacterial LPS, secreted TNF-α after 3 h at 37° C.; read-out: IC50 values in the THP1 cell assay (LPS induced TNF release). On the procedure:
Lipopolysaccharide-Activated THP1 Cell TNF Production Assay
THP1 cells are resuspended in fresh THP1 media (RPMI 1640, 10% heat-inactivated FBS, 1×PGS, 1×NEAA, plus 30 μM βME) at a concentration of 1E6/mL. One hundred microliters of cells per well are plated in a polystyrene 96-well tissue culture. One microgram per mL of bacterial LPS is prepared in THP1 media and is transferred to the wells. Test compounds are dissolved in 100% DMSO and are serially diluted 3 fold in a polypropylene 96-well microtiter plate (drug plate). HI control and LO control wells contain only DMSO. One microliter of test compound from the drug plate followed by 10 μL of LPS are transferred to the cell plate. The treated cells are induced to synthesize and secrete TNF-α at 37° C. for 3 h. Forty microliters of conditioned media are transferred to a 96-well polypropylene plate containing 110 μL of ECL buffer (50 mM Tris-HCl pH 8.0, 100 mM NaCl, 0.05% Tween 20, 0.05% NaN3 and 1% FBS) supplemented with 0.44 nM MAB610 monoclonal Ab (R&D Systems), 0.34 nM ruthenylated AF210NA polyclonal Ab (R&D Systems) and 44 μg/mL sheep anti-mouse M280 Dynabeads (Dynal). After a 2 h incubation at RT with shaking, the reaction is read on the ECL M8 Instrument (IGEN Inc.). A low voltage is applied to the ruthenylated TNF-α immune complexes, which in the presence of TPA (the active component in Origlo), results in a cyclical redox reaction generating light at […]. The amount of secreted TNF-α in the presence of compound compared with that in the presence of DMSO vehicle alone (HI control) is calculated using the formula: % control (POC)=(cpd−average LO)/(average HI−average LO)*100. Data (consisting of POC and inhibitor concentration in μM) is fitted to a 4-parameter equation (y=A+((B−A)/(1+((×/C)ôD))), where A is the minimum y (POC) value, B is the maximum y (POC), C is the x (cpd concentration) at the point of inflection and D is the slope factor) using a Levenburg-Marquardt non-linear regression algorithm.

Turning to `CSc1nccc(Nc2cc(-c3ccccc3)c(=O)n(C)c2)n1` [1-methyl-5-((2-(methylsulfanyl)-4-pyrimidinyl)amino)-3-phenyl-2(1H)-pyridinone], the pIC50 is not below 4.70. For `CC(C)n1cc(N(C)c2ccnc(N[C@@H](C)Cc3cccc(CN)c3)n2)cc(-c2ccccc2)c1=O` [5-((2-(((1S)-2-(3-(aminomethyl)phenyl)-1-methylethyl)amino)-4-pyrimidinyl)(methyl)amino)-1-(1-methylethyl)-3-phenyl-2(1H)-pyridinone], the pIC50 was not below 4.70. In the case of `C[C@@H](Cc1cccc([C@@H](C)N)c1)Nc1nccc(N(C)c2c[nH]c(=O)c(-c3ccccc3)c2)n1` [5-((2-((S)-1-(3-((R)-1-Aminoethyl)phenyl)propan-2-ylamino)pyrimidin-4-yl)-(methyl)amino)-3-phenylpyridin-2(1H)-one], the pIC50 is not below 4.70. With `CN(c1ccnc(N[C@@H](CO)Cc2ccccc2)n1)c1ccnc(-c2ccccc2)n1` [(2R)-2-((4-(methyl(2-phenyl-4-pyrimidinyl)amino)-2-pyrimidinyl)amino)-3-phenyl-1-propanol], the pIC50 was not below 4.70. As for `CN(c1cc(-c2ccccc2)c(=O)n(C)c1)c1ccnc(N[C@@H](CC(=O)O)Cc2ccccc2)n1` [(3R)-3-((4-(methyl(1-methyl-6-oxo-5-phenyl-1,6-dihydro-3-pyridinyl)amino)-2-pyrimidinyl)amino)-4-phenylbutanoic acid], the figure is not below 4.70. For `CN(c1ccnc(N[C@@H](CCO)Cc2ccccc2)n1)c1ccnc(-c2ccccc2)n1` [(3R)-3-((4-(methyl(2-phenyl-4-pyrimidinyl)amino)-2-pyrimidinyl)amino)-4-phenyl-1-butanol] the value was not below 4.70; for `CNC(=O)NCc1cccc(C[C@H](C)Nc2nccc(Nc3nc(-c4ccccc4)ncc3C(=O)NC)n2)c1` [(S)-1-(3-(2-(4-(5-(Methylcarbamoyl)-2-phenylpyrimidin-4-ylamino)pyrimidin-2-ylamino)propyl)benzyl)-3-methylurea], not below 4.70. Turning to `CNC(=O)c1cnc(-c2ccccc2)nc1Nc1ccnc(N[C@@H](C)Cc2cccc(CN)c2)n1` [(S)-4-(2-(1-(3-(aminomethyl)phenyl)-propan-2-ylamino)pyrimidin-4-ylamino)-N-methyl-2-phenylpyrimidine-5-carboxamide], the pIC50 was not below 4.70. As for `C[C@@H](Cc1cccc(CNC(=O)OC(C)(C)C)c1)Nc1nccc(N(C)c2cc(-c3ccccc3)c(=O)n(C)c2)n1` [(S)-tert-Butyl-3-(2-(4-(methyl(1-methyl-6-oxo-5-phenyl-1,6-dihydro-pyridin-3-yl)amino)pyrimidin-2-ylamino)propyl)benzylcarbamate], the pIC50 is not below 4.70. On to `C[C@@H](Cc1cccc([C@@H](C)N)c1)Nc1nccc(N(C)c2ccnc(-c3ccccc3)n2)n1` [Example 1, N^2-((S)-1-(3-((R)-1-Aminoethyl)phenyl)propan-2-yl)-N^4-methyl-N^4-(2-phenylpyrimidin-4-yl)pyrimidine-2,4-diamine], for which the pIC50 is not below 4.70.

Consider `C[C@H](Nc1nccc(N(C)c2ccnc(-c3ccccc3)n2)n1)c1ccc(CCN)cc1` [Example 3, (S)-N^2-(1-(4-(2-Aminoethyl)phenyl)ethyl)-N^4-methyl-N^4-(2-phenylpyrimidin-4-yl)pyrimidine-2,4-diamine], for which the pIC50 was not below 4.70. As for `C[C@H](NC(=O)OC(C)(C)C)c1ccc(CCNc2nccc(N(C)c3ccnc(-c4ccccc4)n3)n2)cc1` [Example 4, (S)-tert-Butyl 1-(4-(2-(4-(methyl(2-phenylpyrimidin-4-yl)amino)pyrimidin-2-ylamino)ethyl)phenyl)ethyl carbamate], the figure is not below 4.70.

For `CN(c1ccnc(NC(C)(C)Cc2ccccc2)n1)c1ccnc(-c2ccccc2)n1` [Example 6, N^4-Methyl-N^2-(2-methyl-1-phenylpropan-2-yl)-N^4-(2-phenylpyrimidin-4-yl)pyrimidine-2,4-diamine], the pIC50 was not below 4.70. Turning to `C[C@@H](Cc1cccc(C2(N)CC2)c1)Nc1nccc(N(C)c2ccnc(-c3ccccc3)n2)n1` [Example 7, (S)-N^2-(1-(3-(1-Aminocyclopropyl)phenyl)propan-2-yl)-N^4-methyl-N^4-(2-phenylpyrimidin-4-yl)pyrimidine-2,4-diamine], the pIC50 was not below 4.70. As for `C[C@@H](Cc1cccc(CN)c1)Nc1nccc(N(C)c2nc(N)cc(-c3ccccc3)n2)n1` [Example 8, (S)-N^4-(4-Amino-6-phenylpyrimidin-2-yl)-N^2-(1-(3-(aminomethyl)phenyl)propan-2-yl)-N^4-methylpyrimidine-2,4-diamine], the figure is not below 4.70. As for `C[C@H](Nc1nccc(N(C)c2ccnc(-c3ccccc3)n2)n1)[C@@H]1CCC[C@H](CCN)C1` [Example 10, N^2-((S)-((1R,3S)-3-(2-Aminoethyl)cyclohexyl)ethyl)-N^4-methyl-N^4-(2-phenylpyrimidin-4-yl)pyrimidine-2,4-diamine], the figure is not below 4.70; as for `C[C@H](N)C1CCCC(CCNc2nccc(N(C)c3ccnc(-c4ccccc4)n3)n2)C1` (stereo partly drawn) [Example 12, N^2-(2-(3-((S)-1-Aminoethyl)cyclohexyl)ethyl)-N^4-methyl-N^4-(2-phenylpyrimidin-4-yl)pyrimidine-2,4-diamine], not below 4.70; as for `CN(c1ccnc(N[C@H]2CC[C@H](N)CC2)n1)c1ccnc(-c2ccccc2)n1` [Example 13, N^2-((1r,4r)-4-Aminocyclohexyl)-N^4-methyl-N^4-(2-phenylpyrimidin-4-yl)pyrimidine-2,4-diamine], not below 4.70. For `CN(c1ccnc(NCCc2ccccc2Cl)n1)c1ccnc(-c2ccccc2)n1` [Example 14, N^2-(2-Chlorophenethyl)-N^4-methyl-N^4-(2-phenylpyrimidin-4-yl)pyrimidine-2,4-diamine] the value was not below 4.70. In the case of `CN(c1ccnc(NCCc2cccnc2)n1)c1ccnc(-c2ccccc2)n1` [Example 15, N^4-Methyl-N^4-(2-phenylpyrimidin-4-yl)-N^2-(2-(pyridin-3-yl)ethyl)pyrimidine-2,4-diamine], the pIC50 is not below 4.70. Consider `CN(c1ccnc(NC2CCNCC2)n1)c1ccnc(-c2ccccc2)n1` [Example 16, N^4-Methyl-N^4-(2-phenylpyrimidin-4-yl)-N^2-(piperidin-4-yl)pyrimidine-2,4-diamine], for which the pIC50 was not below 4.70.

`C[C@H](Nc1nccc(N(C)c2ccnc(-c3ccccc3)n2)n1)c1cccc(CCC(=O)O)c1` [Example 18, (S)-3-(3-(1-(4-(Methyl(2-phenylpyrimidin-4-yl)amino)pyrimidin-2-ylamino)-ethyl)phenyl)propanoic acid]: the pIC50 is not below 4.70. As for `C[C@H](Nc1nccc(N(C)c2ccnc(-c3ccccc3)n2)n1)c1cccc(CCN)c1` [Example 19, (S)-N^2-(1-(3-(2-Aminoethyl)phenyl)ethyl)-N^4-methyl-N^4-(2-phenylpyrimidin-4-yl)pyrimidine-2,4-diamine], the figure is not below 4.70; as for `C[C@H](NC(=O)OC(C)(C)C)c1cccc(CCNc2nccc(N(C)c3ccnc(-c4ccccc4)n3)n2)c1` [Example 20, (S)-tert-Butyl 1-(3-(2-(4-(methyl(2-phenylpyrimidin-4-yl)amino)pyrimidin-2-yl-amino)ethyl)phenyl)ethylcarbamate], not below 4.70. For the compound `C[C@H](N)c1cccc(CCNc2nccc(N(C)c3ccnc(-c4ccccc4)n3)n2)c1` [Example 21, (S)-N^2-(3-(1-Aminoethyl)phenethyl)-N^4-methyl-N^4-(2-phenylpyrimidin-4-yl)-pyrimidine-2,4-diamine], the pIC50 is not below 4.70. As for `CC(=O)N1CCC(Nc2nccc(N(C)c3ccnc(-c4ccccc4)n3)n2)CC1` [Example 22, 1-(4-(4-(Methyl(2-phenylpyrimidin-4-yl)amino)pyrimidin-2-ylamino)piperidin-1-yl)ethanone], the figure is not below 4.70. Regarding `C[C@H](N)C(=O)N1CCC(Nc2nccc(N(C)c3ccnc(-c4ccccc4)n3)n2)CC1` [Example 23], the pIC50 was not below 4.70. For `CC(=O)N[C@H]1CC[C@H](Nc2nccc(N(C)c3ccnc(-c4ccccc4)n3)n2)CC1` [Example 24, N-(4-(4-(Methyl(2-phenylpyrimidin-4-yl)amino)pyrimidin-2-ylamino)cyclohexyl)-acetamide] the value was not below 4.70; for `C[C@H](N)C(=O)N[C@H]1CC[C@H](Nc2nccc(N(C)c3ccnc(-c4ccccc4)n3)n2)CC1` [Example 25, (S)-2-Amino-N-(4-(4-(methyl(2-phenylpyrimidin-4-yl)amino)pyrimidin-2-ylamino)cyclohexyl)propanamide], not below 4.70.
